{"source": "patent US20170333450A1", "about": "“COMPOSITIONS AND METHODS FOR TREATING HIV-ASSOCIATED COGNITIVE DYSFUNCTION” (The Regents of the University of California, priority 2014, published 2017)", "key": {"heme-oxygenase-1 (HO-1)": {"tested_on": "heme-oxygenase-1 (HO-1)", "test": "HO-1 expression in HIV-infected and non-infected monocyte-derived macrophages (MDM) treated with test drug", "format": "cell-based, human", "conditions": "Bardoxolone 5 nM or 50 nM, FIG. 1, Panel A", "text": "(§1) FIG. 1 includes three panels identified as panels A, B, and C showing the results of preclinical testing of Bardoxolone in human monocyte-derived macrophages (MDM) and primary rodent neurons. […] “Mock 1” and “Mock 2” correspond to supernatant from untreated, uninfected macrophages run in parallel with treated macrophages. “Vehicle 1” and “Vehicle 2” correspond to supernatant from macrophages that received 0.05% DMSO and no additional drug. […] This effect is seen at Bardoxolone concentrations as low as 5 nM.\n(§2) Monocyte-derived macrophages (MDM), obtained from uninfected donors, were pretreated with Bardoxolone (5 nM or 50 nM), Tempol, 4-hydroxy-2,2,6,6-tetramethylpiperidin-1-oxyl, (500 nM or 5 μM) or control (0.05% DMSO) for 24 hours prior to HIV infection. […] See FIG. 1, Panel A. This enhanced HO-1 expression decreases release of soluble neurotoxins from infected MDM. “Mock 1” and “Mock 2” correspond to supernatant from untreated, uninfected macrophage run in parallel with treated macrophages. “Vehicle 1” and “Vehicle 2” correspond to supernatant from macrophages that received 0.05% DMSO and no additional drug. Final concentration of DMSO in all treated wells is 0.05%."}, "HIV": {"tested_on": "HIV", "test": "HIV replication in MDM by reverse transcriptase (RT) activity in the culture supernatant", "format": "cell-based", "conditions": "FIG. 1, Panel B", "text": "as §1, §2\nViral replication was determined via reverse, transcriptase (RT) expression in the cell culture supernatant. The RT assay measured incorporation of ^32P dT into long chain poly rA."}, "primary rodent neurons": {"tested_on": "primary rodent neurons", "test": "Neurotoxicity of MDM culture supernatants on cultured primary rodent neurons (MAP-2 expression)", "format": "cell-based", "conditions": "supernatants of HIV infected MDM on primary rodent neurons, FIG. 1, Panel C", "text": "as §1\nIn addition, pre-treated neurons were exposed to the supernatants. Briefly, MDM culture supernatants are applied to cultured primary rodent neurons to test for MDM culture supernatant neurotoxicity. […] This is an indication of neuronal health."}, "[1]": {"tested_on": "HIV-infected U1 monocytes", "test": "Viral expression (p24 gag) in HIV-infected U1 monocytes after LPS stimulation", "format": "cell-based", "conditions": "250 nM pre-treatment overnight, LPS activated; FIG. 2", "method": "As such, methods for reducing viral replication may reduce risk for HAND. In another series of experiments, HIV-infected monocytes were exposed to a virus replication stimulus to determine if pretreatment with Bardoxolone inhibited viral replication. […] Here, a comparison of control cells with those pre-treated with either Tempol (1 μM) or Bardoxolone (250 nM) overnight was performed. The cells were then split into two conditions: LPS activated and non-LPS."}}, "note": "Entries after “also recorded” stand apart in the source; their conditions may differ.", "data": [{"smiles": "CC1(C)CC[C@]2(C(=O)O)CC[C@]3(C)[C@H](C(=O)C=C4[C@@]5(C)C=C(C#N)C(=O)C(C)(C)[C@@H]5CC[C@]43C)[C@@H]2C1", "note": "[Bardoxolone]", "values": [{"measurement": "expression of HO-1 in HIV-infected MDM", "setting": "heme-oxygenase-1 (HO-1); 24 hours before HIV infection and throughout infection", "value": "enhanced expression"}, {"measurement": "expression of HO-1 in non-infected MDM", "setting": "heme-oxygenase-1 (HO-1)", "value": "enhanced expression"}, {"measurement": "concentration at which reduction of HIV replication in MDM is seen", "setting": "HIV; lowest concentration tested, RT activity", "value": "≤ 5", "unit": "nM"}, {"measurement": "HIV reverse transcriptase (RT) activity in the culture supernatants (HIV replication in MDM)", "setting": "HIV; pre-treatment 24 hours before HIV infection, 5 nM or 50 nM", "value": "reduced levels"}, {"measurement": "levels of MAP-2 in the neuron cultures", "setting": "primary rodent neurons", "value": "maintenance or normal levels"}, {"measurement": "neurotoxicity of the MDM cell culture supernatants", "setting": "primary rodent neurons; compared to vehicle control and to Tempol", "value": "dramatically reduced"}, {"measurement": "amount of viral expression (p24 gag) following stimulation", "setting": "[1]", "value": "reduced; also recorded: decreased"}]}]}
